Data from patent publication US6468998B1, “Pyrrolidine compounds and medicinal utilization thereof” (Mitsubishi Pharma Corporation, priority 1998, dated 2002).

Key:
[1] = system: lauric acid-induced peripheral arterial obstruction model; test: Rat lauric acid-induced peripheral arterial obstruction model (therapeutic effect); type: in vivo, Wistar rats; settings: for Lesion score 1 day later / Lesion score 3 days later / Lesion score 5 days later / Lesion score 7 days later: score 0 normal to 6
Protocol: (§1) Effect on Rat Lauric Acid-induced Peripheral Arterial Obstruction Model (Therapeutic Effect) Under anesthesia, lauric acid (0.75 mg/0.15 mL) was injected into the right femoral artery of Wistar rats (6-8 weeks of age). A drug was administered one day after the lauric acid injection. The drug was orally administered twice a day for 7 days. In the same manner as above, a comparative experiment was performed using sarpogrelate and cilostazol as a control compound. In the Table, the values are mean±standard error (n=11).

[2] = system: lauric acid-induced peripheral arterial obstruction model; test: Lauric acid-induced peripheral arterial obstruction model (preventive effect); type: in vivo, Wistar rats; settings: for Lesion score 1 day later / Lesion score 3 days later / Lesion score 5 days later / Lesion score 7 days later: first dose 1 h before lauric acid, score 0 normal to 6
Protocol: as §1, with “on” for “on Rat”, “Model (Preventive” for “Model (Therapeutic”, “administered 1 hour before” for “administered one day after”, “for 8” for “for 7”, “using” for “using sarpogrelate and”, “error (n=12).” for “error (n=11).”

[3] = Effect on heart rate and blood pressure; type: in vivo, Wistar rat; settings: for Change of blood pressure / Change of heart rate: 1 hour, no anesthesia or restriction
Protocol: Effect on Heart Rate and Blood Pressure
A catheter was placed in the femoral artery of Wistar rat, and the blood pressure and heart rate were invasively monitored under no anesthesia or restriction. At 1 hour from the oral administration of the test drug, blood pressure and heart rate were taken. In the same manner as above, a comparative experiment was performed using cilostazol as a control compound.
In the Table, the values are mean±standard error (n=4).

erythrocytes = test: Improvement effect of erythrocyte deformation (Nuclepore membrane filter method); type: in vivo, SHRSP (stroke prone spontaneously hypertensive rat); settings: SHRSP; for Volume of erythrocytes passed: 5 μm filter
Protocol: Improvement Effect of Erythrocyte Deformation
Blood was drawn under anesthesia from SHRSP (stroke prone spontaneously hypertensive rat) loaded with 1% saline for 3 weeks, and the time necessary for 0.5 mL of blood to pass through a filter (pore size 5 μm, Nuclepore) was measured by the Nuclepore membrane filter method of Reid et al., based on which the volume (mL/min) of the erythrocytes passed was calculated. The volume of the erythrocytes passed was taken as an index of erythrocyte deformation. A drug was orally administered 1 hour before drawing the blood. In the same manner as above, a comparative experiment was performed using sarpogrelate as a control compound.
(§2) In the Table, the values are mean±standard error (n=6).

[4] = system: platelet rich plasma (PRP); test: Platelet aggregation suppressive action (collagen + 5-HT, platelet rich plasma); type: cell-based, Japanese white rabbit; settings: Oryctolagus cuniculus, rabbit PRP, collagen + 3 μM 5-HT
Protocol: Platelet Aggregation Suppressive Action
Preparation of platelet rich plasma and a platelet aggregation test were performed according to the method of Born, G. V. R. et al. [Journal of Physiology, Vol. 168, p. 178 (1963)] as in the following. Blood was drawn from the carotid of male Japanese white rabbit with local anesthesia with xylocaine, using a syringe previously added with 3.8% sodium citrate in a 1/10 amount of the blood. This blood was centrifuged at 1000 round/min for 10 min at room temperature to give a platelet rich plasma (PRP) supernatant. This supernatant was further centrifuged at 3000 round/min for 10 min to give a platelet poor plasma (PPP) supernatant. Taking the measurement values of PRP and PPP as 0% aggregation and 100% aggregation, respectively, the platelet aggregation rate (%) was calculated. A test compound (3 μl) was added to 300 μl of PRP and the mixture was incubated at 37° C. for 5 min. Thereto were added, as aggregation inducing substances, collagen at a concentration prohibitive on aggregation by its single administration, and the final concentration of 3 μM of 5-HT, and the aggregation reaction was recorded for 7 min. The effect of the test compound was determined as percent suppression relative to the control group, using the maximum aggregation as an index. The 50% inhibition concentration (IC50) of the test compound was calculated by the nonlinear regression. In the same manner as above, a comparative experiment was conducted for the use of sarpogrelate and cilostazol, respectively as a control compound.

[5] = system: collateral circulation model; test: Promotion of collateral circulation (femoral artery ligation, ADP-added platelet suspension, leg blood flow); type: in vivo, rat; settings: 10 mg/kg oral
Protocol: Promotion of Collateral Circulation
A collateral circulation model was prepared by rat femoral artery ligation, and a test drug was orally administered 7 days later. At 1 hour from the test drug administration, ADP-added platelet suspension (200 μM) was administered under anesthesia into the femoral artery (1 mL/kg), and changes in the leg blood flow were measured. In the same manner as above, a comparative experiment was performed using cilostazol as a control compound.
as §2

5-HT2 receptor = target: T1, 5-HT2 receptor (Rattus norvegicus, UniProt P14842); test: Affinity for 5-HT2 receptor (binding with 3H-ketanserine); settings: rat cerebral cortex crude synapse membrane, 37° C. 20 min
T1 construct: A crude synapse membrane was prepared from a freeze-dried rat cerebral cortex; from tissue; host or cells: rat cerebral cortex (crude synaptic membrane)
Protocol: Affinity for 5-HT2 Receptor (Binding with ^3H-ketanserine)
Preparation of a crude synapse membrane and a binding test were performed according to the method of Leysen J. E. et al. [Molecular Pharmacology, Vol. 21, p. 301 (1982)]. A crude synapse membrane was prepared from a freeze-dried rat cerebral cortex, and the membrane specimen and ^3H-ketanserine were incubated in the presence of a test compound at 37° C. for 20 min. After the completion of the reaction, the reaction mixture was immediately filtered by suction on a Whatmann GF/B filter (trademark), and the radioactivity on the filter was measured on a liquid scintillation counter. The amount of non-specific binding was measured in the presence of 10 μM mianserin. The 50% inhibition concentration (IC50) of the test compound was calculated by the nonlinear regression. In the same manner as above, a comparative test was performed using sarpogrelate as a control compound.

[6] = system: rat intermittent claudication model; test: Effect on rat intermittent claudication model (femoral artery ligation, treadmill walking distance); type: in vivo; settings: for walking distance 8 days after administration (Δm): change vs value before ligation, mean±SE
Text: Effect on Rat Intermittent Claudication Model
Rat was anesthetized and the right thigh was opened to expose femoral artery, which was ligated with a silk thread at a position nearest possible to the heart (upstream). In addition, a position about 1 cm from the ligation site to the periphery was ligated with a silk thread, making two ligature sites. Starting from the next day of preparation of a model to day 8 therefrom, a drug was orally administered twice a day for 8 days. However, the drug was orally administered only in the evening of the first day of administration and only in the morning of the final administration day. The walking distance was measured one day before model preparation (initial value), day 1, day 5 and day 8 with a treadmill apparatus. Using a gait test table without an angle of inclination, the conveyor advance speed was first set to 15 m/min, and the speed was increased every 5 min by 5 m/min until the animal failed walking three times, based on which the walking distance of the rat was measured. In the same manner as above, a comparative experiment was performed using sarpogrelate and cilostazol, respectively as a control compound.
In the Table, the values are mean±standard error (n=8 but n=6 only for sarpogrelate group).

[7] = 10 mg/kg oral twice a day from one day after lauric acid
[8] = 30 mg/kg oral twice a day from one day after lauric acid
[9] = 1 hour, after ADP-added platelet suspension

T1 sequence (P14842 whole entry): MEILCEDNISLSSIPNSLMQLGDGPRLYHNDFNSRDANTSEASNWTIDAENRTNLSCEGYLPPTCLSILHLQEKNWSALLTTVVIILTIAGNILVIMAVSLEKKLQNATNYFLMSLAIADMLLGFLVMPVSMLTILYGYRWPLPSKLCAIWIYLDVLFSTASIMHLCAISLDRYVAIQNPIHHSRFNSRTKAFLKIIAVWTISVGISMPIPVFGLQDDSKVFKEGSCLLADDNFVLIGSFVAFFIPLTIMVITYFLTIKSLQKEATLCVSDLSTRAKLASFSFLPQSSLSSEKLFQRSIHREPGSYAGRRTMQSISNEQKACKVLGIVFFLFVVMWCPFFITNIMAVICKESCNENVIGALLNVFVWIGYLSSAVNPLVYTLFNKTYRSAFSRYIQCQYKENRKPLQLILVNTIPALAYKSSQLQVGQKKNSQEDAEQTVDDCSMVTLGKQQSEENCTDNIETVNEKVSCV

## O=C(N[C@H]1CCN(CCc2ccc(F)cc2)C1)C12CC3CC(CC(C3)C1)C2 [Example 2, (S)-N-(1-(2-(4-fluorophenyl)ethyl)pyrrolidin-3-yl)-1-adamantanecarboxamide]
[1]; [7]
  Lesion score 1 day later: 2.0 ± 0.0
  Lesion score 3 days later: 2.2 ± 0.1
  Lesion score 5 days later: 2.2 ± 0.4
  Lesion score 7 days later: 2.2 ± 0.4
[1]; [8]
  Lesion score 1 day later: 1.8 ± 0.1
  Lesion score 3 days later: 1.7 ± 0.2
  Lesion score 5 days later: 1.3 ± 0.3
  Lesion score 7 days later: 0.9 ± 0.5
[1]; 30 mg/kg, from one day after the lauric acid injection
  peripheral circulatory disturbance (in words): significantly reduced the peripheral circulatory disturbance
[2]; 10 mg/kg and 30 mg/kg, prior to the lauric acid injection
  peripheral circulatory disturbance (in words): significantly reduced the peripheral circulatory disturbance
[2]; 10 mg/kg oral twice a day
  Lesion score 1 day later: 1.8 ± 0.1
  Lesion score 3 days later: 2.1 ± 0.2
  Lesion score 5 days later: 1.8 ± 0.3
  Lesion score 7 days later: 1.9 ± 0.5
[2]; 30 mg/kg oral twice a day
  Lesion score 1 day later: 1.8 ± 0.2
  Lesion score 3 days later: 2.0 ± 0.3
  Lesion score 5 days later: 1.5 ± 0.4
  Lesion score 7 days later: 1.2 ± 0.5
[3]; 30 mg/kg and 100 mg/kg
  influence on heart rate or blood pressure (in words): did not influence the heart rate or blood pressure
[3]; 30 mg/kg oral
  Change of blood pressure: 0.0 ± 1.5 mmHg
  Change of heart rate: −1.3 ± 4.7 beats/min
[3]; 100 mg/kg oral
  Change of blood pressure: −2.8 ± 0.8 mmHg
  Change of heart rate: −4.5 ± 5.2 beats/min
erythrocytes; 10 mg/kg
  volume of the erythrocyte passed, % of the vehicle group: 133%
erythrocytes; 10 mg/kg oral 1 hour before drawing blood
  Volume of erythrocytes passed: 1.05 ± 0.13 mL/min
erythrocytes; 30 mg/kg
  volume of the erythrocyte passed, % of the vehicle group: 186%
erythrocytes; 30 mg/kg oral 1 hour before drawing blood
  Volume of erythrocytes passed: 1.47 ± 0.19 mL/min
[4]
  IC50: 1.9 nM
[5]
  decrease in leg blood flow caused by ADP-added platelet suspension (in words): suppressed the decrease in the blood flow in the legs on both sides
[5]; [9]
  Change in blood flow, control side: −10.1 ± 1.4 %
  Change in blood flow, femoral artery ligation side: −11.8 ± 1.2 %
5-HT2 receptor
  IC50: 0.18 nM
[6]; 3 mg/kg oral twice a day
  walking distance 8 days after administration (Δm): −94.3 ± 36.1 m
[6]; 3 mg/kg, 10 mg/kg and 30 mg/kg, b.i.d.
  walking distance at day 8 of ligation (in words): significantly increased
[6]; 10 mg/kg oral twice a day
  walking distance 8 days after administration (Δm): −89.9 ± 22.2 m
[6]; 30 mg/kg oral twice a day
  walking distance 8 days after administration (Δm): −88.6 ± 25.0 m
